Reference: publication PMC11408619 (2024)

Tested on: Bsu PreQ1 RNA (MFS construct) (RNA, riboswitch) UCGGCGAUCUACGCAGCGACAUAAUAAGAGGUUCUAGCUACACCCUCUAUAAAAAACUAAUAACAACCACUUCCUAAUCUGUCAUCUUCUG
Assay: magnetic force spectroscopy, fraction of high-force cycles
Conditions: 100 mM KCl, 1 mM MgCl2; 50 mM HEPES pH 7.4, 1% DMSO, 22 °C

## NCc1c[nH]c2nc(N)[nH]c(=O)c12
  KD/EC50: 58.8 ± 6.3 nM
